Experiment [1] relates to TGFb/SMAD Signaling Pathway SBE reporter cell line. Kind of experiment: TGFb reporter assay (luciferase). Particulars: 5-6 h preincubation, then TGFb, 18 h, luminescence. In kind it is cell-based. The method, then:
TGFb/SMAD Signaling Pathway SBE reporter cell line was obtained from BPS Bioscience. Cells were passed/expanded/stored in liquid nitrogen per supplier's instruction with the exception that growth media was changed to DMEM-C with Geneticin (DMEM supplemented with 10% fetal bovine serum, 1× NEAA, 1 mM Pyruvate, 2 mM glutamine, 50 μg/mL penicillin, 50 U/mL streptomycin and 400 ug/mL of Geneticin). The assay media was MEM supplemented with 0.5% fetal bovine serum, 1× NEAA, 1 mM Pyruvate, 50 μg/mL penicillin and 50 U/mL streptomycin.
Reporter cells were harvested from the tissue culture flasks by incubation in small quantity of Versene at room temperature for three to five minutes after the media in the flask was removed and cells rinsed with PBS. Cells were counted and diluted in the assay media at ˜0.8×10^6 cells/mL then 50 uL/well were added to 96-well assay plate. Test samples (at desired concentrations diluted in assay media) were added to assay plate containing the 50 uL/well of cells (or media only), 50 uL per well, and incubated for 5-6 hours at 37° C. in a 5% CO2 humidified incubator. After that time, 15 uL of TGFb diluted to 12.5 ng/mL in the assay media was added to the plate. Controls included TGFb titration (from 25 to 0 ng/mL) without inhibitors, and media only (without cells, inhibitor or TGFb). Plates were incubated at 37° C. in a 5% CO2 humidified incubator for 18 h. Luciferase substrate solution was subsequently added at 75 uL per well, incubated in dark with shaking at room temperature for 10 min, and luminescence was measured using a luminometer.

The next experiment deals with T1, ALK5 (Homo sapiens, UniProt P36897).
T1 construct: purchased Reaction Biology Corp (Malvern, PA)
T1 sequence (P36897 34-503): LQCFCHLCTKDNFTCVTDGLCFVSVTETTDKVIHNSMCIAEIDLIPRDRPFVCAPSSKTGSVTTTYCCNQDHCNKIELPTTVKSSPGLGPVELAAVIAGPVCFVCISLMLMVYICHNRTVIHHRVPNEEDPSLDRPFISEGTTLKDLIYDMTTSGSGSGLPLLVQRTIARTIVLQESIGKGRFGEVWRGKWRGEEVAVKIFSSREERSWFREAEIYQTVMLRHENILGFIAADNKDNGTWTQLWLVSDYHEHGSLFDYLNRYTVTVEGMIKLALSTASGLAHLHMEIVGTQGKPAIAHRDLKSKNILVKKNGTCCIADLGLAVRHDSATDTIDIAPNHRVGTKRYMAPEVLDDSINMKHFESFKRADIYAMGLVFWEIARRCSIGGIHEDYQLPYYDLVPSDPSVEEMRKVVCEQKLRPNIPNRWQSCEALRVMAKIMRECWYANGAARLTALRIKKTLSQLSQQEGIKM
In words: ALK5 enzyme inhibition assay (33P-ATP filter-binding, Reaction Biology Corp). The experiment is classed as biochemical. Particulars: casein substrate 1 mg/mL, 10 uM ATP. The method, then: ALK5 enzyme inhibition assays were performed by Reaction Biology Corp (Malvern, PA). 1 mg/mL of peptide subtrate (casein) and 10 uM ATP were prepared in a mixture of fresh reaction buffer. The kinase was delivered into the substrate solution which was gently mixed. Compounds in 100% DMSO were added to the kinase reaction mixture by Acoustic technology (Echo550; nanoliter range) and the mixture was incubated for 20 min at room temperature. ^33P-ATP (Specific activity 10 uCi/uL) was added into the reaction mixture to initiate the reaction and the reaction mixture was incubated for 2 hours at room temperature. Radioactivity was detected by filter-binding method and kinase activity data were expressed as the percent remaining kinase activity in test samples compared to vehicle (dimethyl sulfoxide) reactions. IC50 values and curve fits were obtained using Prism (GraphPad Software).

Structures are written as SMILES.

For orientation: IC50 means the midpoint of a concentration-inhibition curve. A high value points to weaker potency. As for `Cc1cccc(-c2nc(CNc3cncc(CN)c3)[nH]c2-c2ccc3ncnn3c2)n1` [Compound 1.19, N-((5-([1,2,4]triazolo[1,5-a]pyridin-6-yl)-4-(6-methylpyridin-2-yl)-1H-imidazol-2-yl)methyl)-5-(aminomethyl)pyridin-3-amine], the values for the IC50 (in experiment [1]; at ALK5) were 100 to 1000 nM and 1000 to 10000 nM, respectively.
For `Cc1cccc(-c2nc(CNc3cccc4c3CNCC4)[nH]c2-c2ccc3ncnn3c2)n1` [Compound 1.3, N-((5-([1,2,4]triazolo[1,5-a]pyridin-6-yl)-4-(6-methylpyridin-2-yl)-1H-imidazol-2-yl)methyl)-1,2,3,4-tetrahydroisoquinolin-8-amine], in that order: 100 to 1000 nM and 100 to 1000 nM.
For the compound `Cc1cccc(-c2nc(CNC3CCNCC3)[nH]c2-c2ccn3ncnc3c2)n1` [Compound 1.39, N-((5-([1,2,4]triazolo[1,5-a]pyridin-7-yl)-4-(6-methylpyridin-2-yl)-1H-imidazol-2-yl)methyl)piperidin-4-amine], the half-maximal inhibitory concentration (IC50) in experiment [1] lay in the range of 1000 to 10000 nM.
With `Cc1cccc(-c2nc(C3CN(C(=O)OC(C)(C)C)C3)[nH]c2-c2ccc3ncnn3c2)n1` [Compound 1.52, tert-butyl 3-(5-([1,2,4]triazolo[1,5-a]pyridin-6-yl)-4-(6-methylpyridin-2-yl)-1H-imidazol-2-yl)azetidine-1-carboxylate], the 50% inhibitory concentration (IC50) in experiment [1] lay in the range of 100 to 1000 nM.
As for `Cc1cccc(-c2nc(CN[C@H]3c4ccccc4C[C@H]3O)[nH]c2-c2ccc3ncnn3c2)n1` [Compound 1.43, (1S,2R)-1-(((5-([1,2,4]triazolo[1,5-a]pyridin-6-yl)-4-(6-methylpyridin-2-yl)-1H-imidazol-2-yl)methyl)amino)-2,3-dihydro-1H-inden-2-ol], the half-maximal inhibitory concentration (IC50) (in experiment [1]; on ALK5) was 10 to 100 nM throughout.
`Cc1cccc(-c2nc(C3CCCNC3)[nH]c2-c2ccc3ncnn3c2)n1` (centres unmarked) [Compound 1.48, 6-(4-(6-methylpyridin-2-yl)-2-(piperidin-3-yl)-1H-imidazol-5-yl)-[1,2,4]triazolo[1,5-a]pyridine] yielded a half-maximal inhibitory concentration (IC50) in experiment [1] of 100 to 1000 nM.
On to `Cc1cccc(-c2nc(CNC3CCCCC3C)[nH]c2-c2ccc3ncnn3c2)n1` (centres unmarked) [Compound 1.16, 1-(5-([1,2,4]triazolo[1,5-a]pyridin-6-yl)-4-(6-methylpyridin-2-yl)-1H-imidazol-2-yl)-N-(2-methylcyclohexyl)methanamine], for which the IC50 in experiment [1] fell in the range of 10 to 100 nM.
With `Cc1cccc(-c2nc(CNC3CCC3)[nH]c2-c2ccc3ncnn3c2)n1` [Compound 1.10, 1-(5-([1,2,4]triazolo[1,5-a]pyridin-6-yl)-4-(6-methylpyridin-2-yl)-1H-imidazol-2-yl)-N-(cyclobutyl)methanamine], the concentration for half-maximal inhibition (IC50) in experiment [1] fell in the range of 100 to 1000 nM; at ALK5, 1000 to 10000 nM.
As for `Cc1cccc(-c2nc(CNC3CC3)[nH]c2-c2ccc3ncnn3c2)n1` [Compound 1.7, N-((5-([1,2,4]triazolo[1,5-a]pyridin-6-yl)-4-(6-methylpyridin-2-yl)-1H-imidazol-2-yl)methyl)-cyclopropanamine], the 50% inhibitory concentration (IC50) in experiment [1] fell in the range of 100 to 1000 nM; on ALK5 it was 1000 to 10000 nM.
For `Cc1cccc(-c2nc(CNCc3cccc4ccccc34)[nH]c2-c2ccc3ncnn3c2)n1` [Compound 1.57, 1-(5-([1,2,4]triazolo[1,5-a]pyridin-6-yl)-4-(6-methylpyridin-2-yl)-1H-imidazol-2-yl)-N-(naphthalen-1-ylmethyl)methanamine], in that order: 10 to 100 nM and 10 to 100 nM.
In experiment [1], `Cc1cccc(-c2nc(CNc3ccc4c(c3)CCC4N)[nH]c2-c2ccc3ncnn3c2)n1` (centres unmarked) [Compound 1.5, N^5-((5-([1,2,4]triazolo[1,5-a]pyridin-6-yl)-4-(6-methylpyridin-2-yl)-1H-imidazol-2-yl)methyl)-2,3-dihydro-1H-indene-1,5-diamine] gave an IC50 of 100 to 1000 nM.
Same read-out and setting: the value for `Cc1cccc(-c2nc(CNc3cccc4c3C(N)CC4)[nH]c2-c2ccc3ncnn3c2)n1` (centres unmarked) [Compound 1.20, N7-((5-([1,2,4]triazolo[1,5-a]pyridin-6-yl)-4-(6-methylpyridin-2-yl)-1H-imidazol-2-yl)methyl)-2,3-dihydro-1H-indene-1,7-diamine] was 100 to 1000 nM; that for `Cc1cccc(-c2nc(C3CNC3)[nH]c2-c2ccc3ncnn3c2)n1` [Compound 1.53, 6-(2-(azetidin-3-yl)-4-(6-methylpyridin-2-yl)-1H-imidazol-5-yl)-[1,2,4]triazolo[1,5-a]pyridine] was 1000 to 10000 nM.
The same measure, in the same setting: the value for `Cc1cccc(-c2nc(C3CCN(C(=O)OC(C)(C)C)C3)[nH]c2-c2ccc3ncnn3c2)n1` (centres unmarked) [Compound 1.51, tert-butyl 3-(5-([1,2,4]triazolo[1,5-a]pyridin-6-yl)-4-(6-methylpyridin-2-yl)-1H-imidazol-2-yl)pyrrolidine-1-carboxylate] was 100 to 1000 nM; that for `Cc1cccc(-c2nc(CNC3CCCOC3)[nH]c2-c2ccc3ncnn3c2)n1` (centres unmarked) [Compound 1.15, 1-(5-([1,2,4]triazolo[1,5-a]pyridin-6-yl)-4-(6-methylpyridin-2-yl)-1H-imidazol-2-yl)-N-(3-tetrahydropyranyl)methanamine] was 10 to 100 nM; that for `Cc1cccc(-c2nc(C34CCC(N)(CC3)CC4)[nH]c2-c2ccc3ncnn3c2)n1` [Compound 1.55, 4-(5-([1,2,4]triazolo[1,5-a]pyridin-6-yl)-4-(6-methylpyridin-2-yl)-1H-imidazol-2-yl)bicyclo[2.2.2]octan-1-amine] was 1000 to 10000 nM.
The same measure, in the same setting: the value for `Cc1cccc(-c2nc(C3CCCCN3)[nH]c2-c2ccc3ncnn3c2)n1` (centres unmarked) [Compound 1.49, 6-(4-(6-methylpyridin-2-yl)-2-(piperidin-2-yl)-1H-imidazol-5-yl)-[1,2,4]triazolo[1,5-a]pyridine] was 100 to 1000 nM.
`Cc1cccc(-c2nc(CNC3CCCNC3)[nH]c2-c2ccn3ncnc3c2)n1` (centres unmarked) [Compound 1.38, N-((5-([1,2,4]triazolo[1,5-a]pyridin-7-yl)-4-(6-methylpyridin-2-yl)-1H-imidazol-2-yl)methyl)piperidin-3-amine]: the IC50 in experiment [1] was 1000 to 10000 nM.
In experiment [1], `Cc1cccc(-c2nc(C3CCNC3)[nH]c2-c2ccc3ncnn3c2)n1` (centres unmarked) [Compound 1.50, 6-(4-(6-methylpyridin-2-yl)-2-(pyrrolidin-3-yl)-1H-imidazol-5-yl)-[1,2,4]triazolo[1,5-a]pyridine] showed an IC50 of 100 to 1000 nM.
The same measure, in the same setting: the same measure for `Cc1cccc(-c2nc(CNc3cccc4c3CCC4N)[nH]c2-c2ccc3ncnn3c2)n1` (centres unmarked) [Compound 1.6, N^4-((5-([1,2,4]triazolo[1,5-a]pyridin-6-yl)-4-(6-methylpyridin-2-yl)-1H-imidazol-2-yl)methyl)-2,3-dihydro-1H-indene-1,4-diamine]: 100 to 1000 nM; for `CC(=O)NC1Cc2cccc(NCc3nc(-c4cccc(C)n4)c(-c4ccc5ncnn5c4)[nH]3)c2C1` (centres unmarked) [Compound 1.23, N-(4-(((5-([1,2,4]triazolo[1,5-a]pyridin-6-yl)-4-(6-methylpyridin-2-yl)-1H-imidazol-2-yl)methyl)amino)-2,3-dihydro-1H-inden-2-yl)acetamide]: 100 to 1000 nM.
Same read-out and setting: the same measure for `Cc1cccc(-c2nc(CNC34CC(C3)C4)[nH]c2-c2ccc3ncnn3c2)n1` [Compound 1.9, N-((5-([1,2,4]triazolo[1,5-a]pyridin-6-yl)-4-(6-methylpyridin-2-yl)-1H-imidazol-2-yl)methyl)bicyclo-[1.1.1]pentan-1-amine]: 10 to 100 nM; for `Cc1cccc(-c2nc(CNc3ccc4c(c3)C(N)CC4)[nH]c2-c2ccc3ncnn3c2)n1` (centres unmarked) [Compound 1.21, N6-((5-([1,2,4]triazolo[1,5-a]pyridin-6-yl)-4-(6-methylpyridin-2-yl)-1H-imidazol-2-yl)methyl)-2,3-dihydro-1H-indene-1,6-diamine]: 100 to 1000 nM.

These data come from patent US20210154188A1, “ALK5 INHIBITORS, CONJUGATES, AND USES THEREOF” (SILVERBACK THERAPEUTICS, INC., priority 2018, published 2021).
